Experimental findings from patent US9556165B2 (priority 2012, dated 2017) are described below.

In brackets after ≈: the same amount, converted by molar mass. Where two headings read alike, the source gives them in different places. Where only a bound is given, the exact number is not on record here.

Assay type in all cases: cell-based
The test system of assay [1] is E. coli ATCC25922. The assay can be described thus: MIC determination, broth microdilution (CLSI). The following applies: Escherichia coli, ATCC25922, strain 1. (In general: In broth dilution the organism is exposed to a series of concentrations in liquid medium.)
Assay [2] has as its system K. pneumoniae 60. The assay can be described thus: MIC determination, broth microdilution (CLSI). The following applies: Klebsiella pneumoniae, 60, strain 2.
In assay [3] the test system is E. cloacae 34654. The assay can be described thus: MIC determination, broth microdilution (CLSI). Particulars: Enterobacter cloacae, 34654, strain 3.
Assay [4] has as its system C. freundii K21/3034. The assay can be described thus: MIC determination, broth microdilution (CLSI). Particulars: Citrobacter freundii, K21/3034, strain 4.
In assay [5] the test system is M. morganii 126/3048. As to the kind of experiment: MIC determination, broth microdilution (CLSI). Particulars: Morganella morganii, 126/3048, strain 5.
For assay [6], the system named is P. aeruginosa PAO1. As to the kind of experiment: MIC determination, broth microdilution (CLSI). The following applies: Pseudomonas aeruginosa, PAO1, strain 6.
Assay [7] deals with P. aeruginosa 2297 (AmpC wt). As to the kind of experiment: MIC determination, broth microdilution (CLSI). The following applies: Pseudomonas aeruginosa, strain 7.
The subject of assay [8] is P. aeruginosa 2297-con (AmpC derepressed). As to the kind of experiment: MIC determination, broth microdilution (CLSI). The following applies: Pseudomonas aeruginosa, read-out: strain 8 MIC, strain 8.
Assay [9] deals with A. baumannii ATCC15308. As to the kind of experiment: MIC determination, broth microdilution (CLSI). Particulars: Acinetobacter baumannii, ATCC15308, strain 9.
The subject of assay [10] is S. maltophilia ICB7569. As to the kind of experiment: MIC determination, broth microdilution (CLSI). The following applies: Stenotrophomonas maltophilia, ICB7569, strain 10.
For assay [11], the system named is S. aureus 133. The assay can be described thus: MIC determination, broth microdilution (CLSI).
For assay [12], the system named is H. influenzae ATCC 49247. The assay can be described thus: MIC determination, broth microdilution (CLSI). The following applies: Haemophilus influenzae, ATCC49247, strain 12; broth microdilution; read-out: MIC strain 12 (H. influenzae ATCC 49247).
Assay [13] concerns S. pneumoniae 113. As to the kind of experiment: MIC determination, broth microdilution (CLSI). The following applies: Streptococcus pneumoniae, 113, strain 13; broth microdilution; read-out: MIC strain 13 (S. pneumoniae 113).
In assay [14] the test system is B. fragilis 6688. The assay can be described thus: MIC determination, broth microdilution (CLSI). Particulars: Bacteroides fragilis, 6688, strain 15; broth microdilution; read-out: MIC strain 15 (B. fragilis 6688).
For assay [15], the system named is C. perfringens DSM756. The assay can be described thus: microbe, parasite or virus in culture. The following applies: Clostridium perfringens, DSM756, read-out: MIC strain 16 (C. perfringens DSM756), strain 16; broth microdilution.
The test system of assay [16] is E. coli J62. The assay can be described thus: MIC determination, broth microdilution (CLSI). Particulars: Escherichia coli, J62, strain 17; broth microdilution; read-out: MIC strain 17 (E. coli J62).
In assay [17] the test system is E. coli J62-TEM-3. The assay can be described thus: MIC determination, broth microdilution (CLSI). Particulars: Escherichia coli, J62TEM3, read-out: MIC strain 18 (E. coli J62-TEM-3), strain 18; broth microdilution.
The test system of assay [18] is Bacteria. As to the kind of experiment: MIC determination in combination with β-lactamase inhibitors (constant 4 μg/mL).
Setting [19] is: Staphylococcus aureus, 133, strain 11, read-out: strain 11 MIC.
Where [20] appears, read: Staphylococcus aureus, 133, strain 14, broth microdilution, read-out: MIC strain 14 (S. aureus 133).

With `CN(C)CCNC(=N)c1ccc(OCCO/N=C(\C(=O)N[C@@H]2C(=O)N(OS(=O)(=O)O)C2(C)C)c2csc(N)n2)cc1` [Example 40, (2Z)-2-(2-Amino-1,3-thiazol-4-yl)-2-{[2-(4-{N-[2-(dimethylamino)ethyl]carbamimidoyl}phenoxy)ethoxy]imino}-N-[(3S)-2,2-dimethyl-4-oxo-1-(sulfooxy)azetidin-3-yl]ethanamide], the MIC came to 0.125 µg/mL (≈ 0.204 µM) in assay [1]; 0.25 µg/mL (≈ 0.408 µM) in assay [2]; 0.5 µg/mL (≈ 0.816 µM) in [3]; 0.125 µg/mL (≈ 0.204 µM) in assay [4]; 0.5 µg/mL (≈ 0.816 µM) in assay [5]; 4 µg/mL (≈ 6.53 µM) in [6]. In addition, the MIC in assay [7] was 8 µg/mL (≈ 13.1 µM); in assay [8], 4 µg/mL (≈ 6.53 µM); in [9], 2 µg/mL (≈ 3.26 µM); in assay [10] it was 16 µg/mL (≈ 26.1 µM); in [11] (setting [19]), ≤ 0.063 µg/mL; in assay [12], ≤ 0.063 µg/mL. For the same molecule, the MIC in [13] is ≤ 0.063 µg/mL; in [14], 4 µg/mL (≈ 6.53 µM); in assay [15] it was 2 µg/mL (≈ 3.26 µM); in [16], 0.25 µg/mL (≈ 0.408 µM); in assay [17], 8 µg/mL (≈ 13.1 µM). Moreover, in assay [18], the “MIC strain 19 (E. coli J62-TEM-3 + 4 μg/mL clavulanic acid)” value was determined as 0.125 µg/mL. In addition, the “MIC strain 20 (E. coli J62-TEM-3 + 4 μg/mL sulbactam)” value in assay [18] was 0.25 µg/mL. For the same molecule, in assay [18], the “MIC strain 21 (E. coli J62-TEM-3 + 4 μg/mL tazobactam)” value is 0.25 µg/mL.
Take `CC1(C)[C@H](NC(=O)/C(=N\OCCOc2ccc(C(=N)N)cc2)c2csc(N)n2)C(=O)N1OS(=O)(=O)O` [Example 41, (2Z)-2-(2-Amino-1,3-thiazol-4-yl)-2-{[2-(4-carbamimidoylphenoxy)ethoxy]imino}-N-[(3S)-2,2-dimethyl-4-oxo-1-(sulfooxy)azetidin-3-yl]ethanamide]: the MIC is 0.25 µg/mL (≈ 0.462 µM) in assay [1]; 0.5 µg/mL (≈ 0.923 µM) in [2]; 0.25 µg/mL (≈ 0.462 µM) in [3]; 0.125 µg/mL (≈ 0.231 µM) in [4]; 0.25 µg/mL (≈ 0.462 µM) in [5]; 4 µg/mL (≈ 7.39 µM) in assay [6]. Also, the MIC in assay [7] is 4 µg/mL (≈ 7.39 µM); in [8] it was 4 µg/mL (≈ 7.39 µM); in assay [9], 1 µg/mL (≈ 1.85 µM); in assay [10] it was 4 µg/mL (≈ 7.39 µM); in assay [11] (setting [19]), ≤ 0.063 µg/mL; in assay [11] (setting [20]), 4 µg/mL (≈ 7.39 µM). For the same molecule, the MIC was ≤ 0.063 µg/mL in assay [12]; ≤ 0.063 µg/mL in assay [13]; 2 µg/mL (≈ 3.69 µM) in assay [14]; 1 µg/mL (≈ 1.85 µM) in assay [15]; 0.25 µg/mL (≈ 0.462 µM) in assay [16]; 8 µg/mL (≈ 14.8 µM) in assay [17]. In [18], the “MIC strain 19 (E. coli J62-TEM-3 + 4 μg/mL clavulanic acid)” value amounted to 0.25 µg/mL. Besides, the “MIC strain 20 (E. coli J62-TEM-3 + 4 μg/mL sulbactam)” value in assay [18] was 0.25 µg/mL. Besides, the “MIC strain 21 (E. coli J62-TEM-3 + 4 μg/mL tazobactam)” value in assay [18] is 0.25 µg/mL.
Regarding `CN(C)C(=O)[C@@H]1C[C@H](NC(=N)c2ccc(OCCO/N=C(\C(=O)N[C@@H]3C(=O)N(OS(=O)(=O)O)C3(C)C)c3csc(N)n3)cc2)CN1` [Example 42, (4S)-4-{[{4-[2-({[(1Z)-1-(2-Amino-1,3-thiazol-4-yl)-2-{[(3S)-2,2-dimethyl-4-oxo-1-(sulfooxy)azetidin-3-yl]amino}-2-oxoethylidene]amino}oxy)ethoxy]phenyl}(imino)methyl]amino}-N,N-dimethyl-L-prolinamide], the MIC in [1] came to 1 µg/mL (≈ 1.47 µM); in [2] it was 1 µg/mL (≈ 1.47 µM); in assay [3], 2 µg/mL (≈ 2.93 µM); in assay [4] it was 1 µg/mL (≈ 1.47 µM); in [5] it was 2 µg/mL (≈ 2.93 µM); in assay [6], 16 µg/mL (≈ 23.5 µM). Also, the MIC is 16 µg/mL (≈ 23.5 µM) in assay [7]; 16 µg/mL (≈ 23.5 µM) in assay [8]; 8 µg/mL (≈ 11.7 µM) in assay [9]; 16 µg/mL (≈ 23.5 µM) in assay [10]; ≤ 0.063 µg/mL in [11] (setting [19]); 16 µg/mL (≈ 23.5 µM) in assay [11] (setting [20]). Further, the MIC was found to be 0.25 µg/mL (≈ 0.367 µM) in [12]; 0.125 µg/mL (≈ 0.183 µM) in [13]; 8 µg/mL (≈ 11.7 µM) in assay [14]; 4 µg/mL (≈ 5.87 µM) in assay [15]; 1 µg/mL (≈ 1.47 µM) in assay [16]; 16 µg/mL (≈ 23.5 µM) in assay [17]. The “MIC strain 19 (E. coli J62-TEM-3 + 4 μg/mL clavulanic acid)” value in assay [18] came out at 1 µg/mL. Besides, the “MIC strain 20 (E. coli J62-TEM-3 + 4 μg/mL sulbactam)” value in assay [18] came out at 1 µg/mL. Also, the “MIC strain 21 (E. coli J62-TEM-3 + 4 μg/mL tazobactam)” value in [18] was determined as 1 µg/mL.
